This note sets out measurements from patent US20050182040A1, “Benzamide derivatives” (priority 2002, published 2005).

The target in the first series is T1, Rho kinase (Bos taurus, UniProt Q28021).
T1 construct: Rho kinase was selectively immobilized from the bovine brain extract fraction; from tissue; host or cells: bovine brain gray matter extract, captured on an anti-ROKII peptide antibody plate
T1 sequence (Q28021 whole entry): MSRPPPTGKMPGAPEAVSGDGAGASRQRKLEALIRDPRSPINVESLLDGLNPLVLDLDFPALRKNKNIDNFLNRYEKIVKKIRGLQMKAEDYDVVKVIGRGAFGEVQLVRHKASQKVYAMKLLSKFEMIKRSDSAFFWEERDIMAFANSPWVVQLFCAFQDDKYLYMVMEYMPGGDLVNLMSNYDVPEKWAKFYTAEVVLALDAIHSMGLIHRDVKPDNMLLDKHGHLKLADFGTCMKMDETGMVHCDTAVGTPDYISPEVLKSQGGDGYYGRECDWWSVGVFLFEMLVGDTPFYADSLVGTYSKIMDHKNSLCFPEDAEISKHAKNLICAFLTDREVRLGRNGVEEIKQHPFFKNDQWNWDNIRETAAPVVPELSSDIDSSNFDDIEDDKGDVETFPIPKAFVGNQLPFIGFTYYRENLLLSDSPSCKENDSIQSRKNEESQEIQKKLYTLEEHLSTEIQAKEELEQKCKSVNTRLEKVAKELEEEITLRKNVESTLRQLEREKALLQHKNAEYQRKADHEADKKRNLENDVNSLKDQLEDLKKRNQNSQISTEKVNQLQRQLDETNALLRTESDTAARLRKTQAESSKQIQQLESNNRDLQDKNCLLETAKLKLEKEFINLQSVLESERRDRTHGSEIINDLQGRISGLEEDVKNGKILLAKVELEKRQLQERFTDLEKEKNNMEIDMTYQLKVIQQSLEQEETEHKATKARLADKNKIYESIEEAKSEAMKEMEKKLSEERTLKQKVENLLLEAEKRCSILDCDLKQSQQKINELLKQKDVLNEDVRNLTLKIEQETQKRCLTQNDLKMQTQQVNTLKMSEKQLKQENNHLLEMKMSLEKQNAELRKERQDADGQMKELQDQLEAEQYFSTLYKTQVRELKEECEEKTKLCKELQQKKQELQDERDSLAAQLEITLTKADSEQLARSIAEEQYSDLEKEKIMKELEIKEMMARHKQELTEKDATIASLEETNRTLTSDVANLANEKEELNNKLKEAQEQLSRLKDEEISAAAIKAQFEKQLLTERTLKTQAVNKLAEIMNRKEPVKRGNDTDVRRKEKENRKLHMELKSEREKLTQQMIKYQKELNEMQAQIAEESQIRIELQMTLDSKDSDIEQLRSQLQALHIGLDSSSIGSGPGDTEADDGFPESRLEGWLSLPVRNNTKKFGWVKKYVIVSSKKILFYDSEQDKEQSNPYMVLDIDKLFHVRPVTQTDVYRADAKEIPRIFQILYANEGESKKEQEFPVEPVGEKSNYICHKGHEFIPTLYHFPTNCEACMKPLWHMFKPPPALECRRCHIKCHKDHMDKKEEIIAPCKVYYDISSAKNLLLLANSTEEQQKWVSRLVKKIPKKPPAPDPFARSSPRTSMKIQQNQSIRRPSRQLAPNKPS
Nature of the series: Assay of the inhibition of phosphorylation by Rho kinase. The series is classed as biochemical. The settings on record: Rho kinase immobilized from bovine brain extract fraction on anti-Rho kinase antibody plate; 0.1 μM ATP ([γ-32P]ATP), histone (HF2A) substrate; room temperature, 4 hours. The protocol: Assay of the inhibition of phosphorylation by Rho kinase
A bovine brain extract fraction was prepared as follows. That is, a piece of gray matter was minced from bovine brain and suspended in a buffer solution for immunoprecipitation (10 mM tris(hydroxymethyl)aminomethane (Tris) (pH 7.5), 1% Triton X-100, 0.5% NP-40, 150 mM NaCl, 20 mM sodium fluoride, 1 mM ethylenediaminetetraacetic acid (EDTA), 1 mM ethylene glycol bis(β-aminoethyl ether)-N,N,N′,N′-tetraacetic acid (EGTA) and 0.2 mM phenylmethylsulfonyl fluoride (PMSF)) in two volumes of the gray matter. The tissue was homogenized by the use of a Potter type homogenizer made of polytetrafluoroethylene. After the homogenate was centrifuged at 20,000 g for 15 minutes, the supernatant was collected and then subjected to ultracentrifugation at 100,000 g for 60 minutes. The resulting supernatant was used as a bovine brain extract fraction.
An anti-Rho kinase antibody immobilized plate was prepared as follows. That is, a secondary antibody (anti-goat IgG (Fc) antibody) was diluted 300-fold with phosphate-buffered saline (PBS) (1 μl antibody/300 μl PBS), and 100 μl of the resulting dilution was added to each well of a 96-well ELISA plate. After coating at room temperature for 2 hours, the supernatant was removed. Thereafter, 100 μl of PBS was added and then the supernatant was removed (this washing operation was carried out twice). After the washing, 100 μl of a blocking buffer solution (0.05% Tween 20 and 0.25% bovine serum albumin (fatty acid free)/PBS) was added, followed by blocking at room temperature for 1 hour. After the blocking, each well was washed twice with 100 μl of the blocking buffer solution, and 100 μl of a primary antibody (anti-ROKII (Rho kinase) peptide antibody) diluted 200-fold (0.5 μl (0.1 μg)/100 μl) with PBS was added, followed by coating at room temperature for 2 hours. After the coating, each well was washed once with 100 μl of the blocking buffer solution. In addition, 100 μl of the blocking buffer solution was added to obtain an anti-Rho kinase antibody immobilized plate.
Using the aforesaid plate, Rho kinase was selectively immobilized from the bovine brain extract fraction, and phosphorylation by Rho kinase was assayed. To each well of the antibody-immobilized plate was added 100 μl of a bovine brain extract solution prepared so as to have a concentration of 1.5 mg/ml, and the reactions were incubated at 4° C. for 1 hour to immobilize Rho kinase on the plate. After completion of the reaction, the supernatant was removed and each well was washed three times with 100 μl of the buffer solution for immunoprecipitation. In addition, each well was washed three times with 100 μl of buffer solution A (50 mM Tris (pH 7.5), 10 mM MgCl2 and 150 mM NaCl). To each well of the plate freed from the supernatant was added 40 μl of the aforesaid buffer solution for reaction (50 mM Tris-HCl (pH 7.5), 2 mM EDTA and 10 mM MgCl2). Further, adenosine 5′-triphosphate (ATP) buffer (0.1 μM ATP (containing 6 nM [v-^32P]ATP) and 10 μg histone (HF2A)) containing each compound was prepared, and 10 μl of this solution was added to each well of the plate to initiate the reaction. The reactions were carried out at room temperature for 4 hours. The reaction was terminated by the addition of a phosphoric acid solution of a final concentration of 75 mM and 50 μM ATP. After completion of the reaction, 50 μl of the reaction solutions were spotted onto a phosphocellulose filter for Beta Plate 1205 (Wallac) only. After completion of the spot, the filter was washed with 150 ml of a 75 mM phosphoric acid solution for 10 minutes. This washing operation was repeated three times. After completion of the washing, the filter was dried and then wrapped in a cellophane bag, and 10 ml of a liquid scintillation cocktail was added. The amount of energy (β-ray radioactivity count) trapped in the filter was measured with Beta Plate 1205. […]
The compound `NC(=O)c1ccc(NC2CCN(Cc3ccccc3)CC2)cc1` [Example 10, 4-[(1-benzylpiperidin-4-yl)amino]benzamide] had an IC50 of 2000 nM.
For the compound `NC(=O)c1cc(F)c(N[C@H]2CC[C@H](N)CC2)cc1F` [Example 162, 4-[trans-(4-aminocyclohexyl)-amino]-2,5-difluorobenzamide], the IC50 is 26.4 nM. Against the preceding compound, the IC50 is about 76-fold lower.
In turn, `COc1cc(O[C@H]2CC[C@H](N)CC2)c(Cl)cc1C(N)=O` [Example 159, 4-[(trans-4-aminocyclohexyl)-oxy]-5-chloro-2-methoxybenzamide] had an IC50 of 24.4 nM.
`COc1cc(N[C@H]2CC[C@H](N)CC2)c(Cl)cc1C(N)=O` [Example 113, 4-[(trans-4-aminocyclohexyl)amino]-5-chloro-2-methoxybenzamide]: the IC50 is 21.8 nM.
Turning to `NC(=O)c1cc(Br)c(N[C@H]2CC[C@H](N)CC2)cc1F` [Example 163, 4-[trans-(4-aminocyclohexyl)-amino]-5-bromo-2-fluorobenzamide], the IC50 was 24.8 nM.
On the same count and under the same terms, as for `NC(=O)c1cc(Cl)c(N[C@H]2CC[C@H](N)CC2)cc1F` [Example 141, 4-[trans-(4-aminocyclohexyl)-amino]-5-chloro-2-fluorobenzamide], the figure is 28.7 nM; as for `COc1cc(N[C@H]2CC[C@H](N)CC2)c(F)cc1C(N)=O` [Example 158, 4-[(trans-4-aminocyclo-hexyl)amino]-5-fluoro-2-methoxybenzamide], 28.4 nM.

Tested on in the next series: not given
Test: not given
Conditions: not given
In turn, `COc1cc(NCc2ccccc2)ccc1C(N)=O` [Example 85, 4-(benzylamino)-2-methoxybenzamide] showed a melting point of 175 to 176 °C.
In the case of `Cl.NC(=O)c1ccc(NC2CCNCC2)cc1`, the melting point was 292 to 294 °C (dec.).
In the case of `NC(=O)c1ccc(NC2CCN(Cc3ccccc3)CC2)cc1` [Example 10, 4-[(1-benzylpiperidin-4-yl)amino]benzamide], the melting point was in the range of 192 to 193 °C.
Compound `COc1cc(NC2CCN(Cc3ccccc3)CC2)ccc1C(N)=O` [Example 28, 4-[(1-benzylpiperidin-4-yl)amino]-2-methoxybenzamide] came in with a melting point of 155 to 157 °C.
Take `COc1cc(NCc2ccncc2)ccc1C(N)=O` [Example 128, 2-Methoxy-4-[(pyridin-4-ylmethyl)amino]-benzamide]: the melting point lay in the range of 180 to 183 °C.
`NC(=O)c1ccc(OC2CCN(Cc3ccccc3)CC2)cc1` [Example 25, 4-[(1-benzylpiperidin-4-yl)oxy]benzamide] registered a melting point of 166 to 168 °C.
`NC(=O)c1ccc(NC(=O)C2CCCN(Cc3ccccc3)C2)cc1` (centres unmarked) [Example 13, N-[4-(aminocarbonyl)phenyl]-1-benzylpiperidine-3-carboxamide] showed a melting point of 211 to 212 °C.

In general, IC50 refers to the concentration at which inhibition is half-maximal. The low end stands for higher potency, the high end for lower potency. One may read the melting point as the temperature of the solid-liquid transition.
